# Test results as given in patent publication US5187071A, “Method for the selective control of weeds, pests, and microbes” (priority 1988, dated 1993).
# Columns and labels:
# [1] = tested on: 3-deoxy-D-arabino-heptulosonate 7-phosphate synthase; assay: feedback inhibition of chloroplast DAHP synthase; assay type: biochemical, higher plants; details: higher-plant chloroplasts
# Text: Because L-arogenate regulates aromatic amino acid biosynthesis in the chloroplast by feedback inhibition exerted upon the initial enzyme of aromatic biosynthesis, it provides an excellent point of attack. Application of L-arogenate or an L-arogenate-type compound will cause a serious disturbance of the feedback inhibition mechanism of this crucial metabolic pathway.
# [2] = tested on: DAHP synthase isozymes of higher plants; assay: inhibition of DAHP synthase isozymes of higher plants; assay type: biochemical; details: two separately compartmented isozymes
# Text: The early amino acid pathway circuit entails the feedback inhibition of 3-deoxy-D-arabinoheptulosonate 7-P (DAHP) synthase by chorismate. Thus, the DAHP synthase of Xanthomonas offers unique target of vulnerability in nature since an appropriate analog mimic of chorismate produces false feedback inhibition of DAHP synthase in Xanthomonas but not in the higher plant host. […] Step two of the claimed process has thus been completed.
# The DAHP synthase of xanthomonads is also sensitive to inhibition by L-tryptophan. […] Thus, analog mimics of L-tryptophan attack a second site within the basic DAHP synthase target of Xanthomonas.
# [3] = tested on: a variety of bacteria, including N. gonorrhoeae; assay: energy drain / PEP depletion in bacteria after EPSP synthase block; assay type: cell-based
# Text: The enzymic target of N-(phosphonomethyl) glycine action is not present in mammalian systems, therefore, N-(phosphonomethyl) glycine is not toxic to the human host. Because N-(phosphonomethyl) glycine acts on an enzyme which is present in pathogenic bacteria but not in the human host, this compound could be used as an effective control agent for bacterial pathogens.
# [4] = tested on: microbial prephenate dehydrogenase; assay: substrate utilization by microbial prephenate dehydrogenase; assay type: biochemical
# Text: (§1) Therefore, prephenyllactate is an appropriate prephenate analog for the control of phytopathogens.
# [5] = tested on: cyclohexadienyl dehydrogenase; assay: substrate utilization by cyclohexadienyl dehydrogenase; assay type: biochemical
# Text: as §1
# [6] = tested on: arogenate dehydrogenase; assay: substrate utilization by arogenate dehydrogenase enzymes; assay type: biochemical
# Text: as §1
smiles,measurement,setting,value
N[C@@H](CC1(C(=O)O)C=CC(O)C=C1)C(=O)O (stereo partly drawn) [L-arogenate],feedback inhibition of the initial enzyme of aromatic biosynthesis,[1],feedback inhibitor
N[C@@H](Cc1c[nH]c2ccccc12)C(=O)O [L-tryptophan],sensitivity of higher-plant DAHP synthase isozymes to inhibition,[2],not affected
O=C(O)CNCP(=O)(O)O [N-(phosphonomethyl) glycine],drain upon intracellular supplies of PEP,"[3]; even at microgram levels, shikimate-3-phosphate accumulates",produces a drain upon intracellular supplies of PEP
same,energy drain from depletion of PEP and ATP,"[3]; variety of bacteria, including N. gonorrhoeae",severe energy drain
C=C(O[C@@H]1C=C(C(=O)O)C=C[C@H]1O)C(=O)O [chorismate],sensitivity of higher-plant DAHP synthase isozymes to inhibition,[2],neither sensitive to inhibition
"O=C(O)C(O)CC1(C(=O)O)C=CC(O)C=C1 (stereo not drawn) [prephenyllactate, β-(1-carboxyl-4-hydroxy-2,5-cyclohexadien-1-yl) lactic acid]",utilization as substrate by microbial prephenate dehydrogenase,[4],as a substrate quite well
same,utilization as substrate by cyclohexadienyl dehydrogenase,[5],as a substrate quite well
same,utilization as substrate by arogenate dehydrogenase enzymes,[6],do not use prephenyllactate as a substrate
